Results as given in paper PMC6642116, “Structural and functional analyses of hepatitis B virus X protein BH3-like domain and Bcl-xL interaction” (Nature Communications, 2019).
Like-named read-outs stand apart in the source and are kept apart here. Residues, ends and D or L forms follow the SMILES beside them.

Tests used:
Bcl-xL = target: T1, Bcl-xL (Homo sapiens, UniProt Q07817, DEL27-82); assay: Isothermal titration calorimetry of peptides with Bcl-xL; type: binding; conditions: ITC, 25 °C, peptide 800 μM
T1 construct: 6xHis-SUMO (N, cleaved yes); made in house; host or cells: Escherichia coli BL21(DE3)
Text: The codon-optimized DNAs encoding Bcl-xLΔTM (the flexible loop, residues 27–82, and the transmembrane domain, residues, 197–233, are deleted, total […], named as Bcl-xL thereafter) was ordered from Genewiz (www.genewiz.com). The recombinant Bcl-xL with N-terminal SUMO-fused 6× His tag was generated by the insertion of the PCR products into pETSUMO vector (Invitrogen; www.thermofisher.com) and verified by sequencing. Recombinant proteins were expressed in Escherichia coli (BL21/DE3) strain overnight at 20 °C and proteins were induced by 0.4 mM isopropyl β-D-thiogalactoside. Cells were harvested by centrifugation and the pellets were re-suspended and passed through a cell disruptor (www.avestin.com) three times. After ultracentrifugation at 40,000 rpm for 1 h, the supernatant for His-tagged recombinant proteins were purified through Ni^2+ affinity column, cleaved by Ulp-1, followed by HiLoad Superdex S-75 26/60 column (GE Healthcare). The purified proteins were dialyzed against stabilization buffer containing 20 mM Tris-HCl (pH 7.0) and 100 mM NaCl and concentrated to 10–15 mg/ml in a Centriprep-30 (Amicon) for subsequent crystallization and biochemical analysis.
Microcalorimetry was used for all measurements. Bcl-xL protein was prepared at a final concentration of 10 μM in a buffer containing 25 mM Tris-HCl (pH 8.0). The ABT-263 was dissolved in the same buffer to a final concentration of 500 μM, while the peptides were dissolved to a final concentration of 800 μM. All experiments were carried out at 25 °C. Data were analyzed using the software Origin (OriginLab).

HepG2-NTCP cells [1] = assay: Cell viability (CCK8 assay) of HBV-infected HepG2-NTCP cells; type: cell-based; design: Cell viability: unit not given here; conditions: for Cell viability: day 8 after HBV infection
Method: Fig. 6 The HBx-aa118–127 peptide, but not ABT-263, inhibits HBV replication and transcription in HepG2.2.15 cells. a HepG2.2.15 cells were treated with 125, 250, 500, and 1000 nM of ABT-263 for 2 days. Cytoplasmic HBV viral particles were isolated and the viral DNA replication intermediates were quantified (Methods). The results represent the fold change of the replicative intermediates in HepG2.2.15 cells from the indicated treatments, compared with those without treatment. b HepG2.2.15 cells were treated with the indicated concentrations of ABT-263 for 2 days. The lysate was analyzed by immunoblotting using antibodies to caspase-3 (CASP3) and GAPDH (glyceraldehyde 3-phosphate dehydrogenase). c, d The HBx-aa113–135, HBx-aa118–127, or the control peptides were delivered into HepG2.2.15 cells using PEP-1 nanoparticles (Methods). The levels of HBV DNA (c) and the levels of HBV S-antigen (HBsAg) expression (d) in culture medium collected from HepG2.2.15 cells were measured (Methods). The results are shown as fold change compared to that of the control peptide. e–g HepG2-NTCP cells were transfected with HBx118–127 peptide with concentration of […], and 50 μg/ml or unrelated control peptide during HBV infection (multiplicity of infection (MOI) = 200), respectively. e HBV e-antigen (HBeAg), f HBV DNA, and g cell viability were measured at day 8 after HBV infection. Data shown represent mean ± SD. Significance is indicated on the top. Not significant (ns): *P < 0.05, **P < 0.01; two-tailed unpaired t tests (n = 3 biologically independent samples). Source data are provided as a Source Data file
HBx-aa118-127 peptide treatment.
obvious cytotoxicity at concentrations between 12.5-200 µg/mL (Fig. 6g). Taken together, […]

HepG2-NTCP cells [2] = assay: as above; type: cell-based; design: unit not given here; conditions: CCK8, 200 µg/mL, day 8 after HBV infection
[3] = Bcl-xL 10 μM in 25 mM Tris-HCl (pH 8.0), read-out: dissociation constant

With CC[C@H](C)[C@H](NC(=O)[C@H](CCC(=O)O)NC(=O)[C@H](CCC(=O)O)NC(=O)CNC(=O)[C@H](CC(C)C)NC(=O)[C@H](CCC(=O)O)NC(=O)[C@H](CCC(=O)O)NC(=O)[C@H](Cc1c[nH]c2ccccc12)NC(=O)[C@H](CC(=O)O)NC(=O)[C@H](CCCCN)NC(=O)[C@H](Cc1ccccc1)NC(=O)[C@@H](NC(=O)[C@H](CS)NC(=O)[C@H](CC(=O)O)NC(=O)[C@@H](N)CCCCN)C(C)C)C(=O)N[C@@H](CCCNC(=N)N)C(=O)N[C@@H](CC(C)C)C(=O)N[C@@H](CCCCN)C(=O)N[C@H](C(=O)N[C@@H](Cc1ccccc1)C(=O)N[C@H](C(=O)N[C@@H](CC(C)C)C(=O)NCC(=O)O)C(C)C)C(C)C [HBx-aa113–135] the Kd (Bcl-xL; [3]) was 26.5 ± 13.7 µM.
In the case of CC[C@H](C)[C@H](NC(=O)[C@H](CCC(=O)O)NC(=O)[C@H](CCC(=O)O)NC(=O)CNC(=O)[C@H](CC(C)C)NC(=O)[C@H](CCC(=O)O)NC(=O)[C@H](CCC(=O)O)NC(=O)[C@H](Cc1c[nH]c2ccccc12)NC(=O)[C@H](CC(=O)O)NC(=O)[C@@H](N)CCCCN)C(=O)O [HBx-aa118–127] (H-KDWEELGEEI-OH), the Cell viability (HepG2-NTCP cells [1]; CCK8, 12.5 µg/mL, replicate 1) is reported as 94.534, the Cell viability (HepG2-NTCP cells [1]; CCK8, 12.5 µg/mL, replicate 2) is reported as 96.726 and the Cell viability (HepG2-NTCP cells [1]; CCK8, 12.5 µg/mL, replicate 3) is reported as 98.429. For the same compound, the Cell viability (HepG2-NTCP cells [1]; CCK8, 50 µg/mL, replicate 1) was 92.904, the Cell viability (HepG2-NTCP cells [1]; CCK8, 50 µg/mL, replicate 2) was 96.191 and the Cell viability (HepG2-NTCP cells [1]; CCK8, 50 µg/mL, replicate 3) was 97.303. For the same compound, the “cytotoxicity (in words)” value (HepG2-NTCP cells [1]; HepG2-NTCP, 12.5, 50, and 200 µg/ml) was “no obvious cytotoxicity”, the Kd (Bcl-xL; [3]) was 10 ± 2.95 µM and the Kd (Bcl-xL; Bcl-xL 10 μM presaturated with ABT-263, 25 mM Tris-HCl (pH 8.0), read-out: dissociation constant, Bcl-xL presaturated with ABT-263) was 21 ± 4.05 µM. For the same compound, the Cell viability (HepG2-NTCP cells [2]; replicate 1) was 96.104, the Cell viability (HepG2-NTCP cells [2]; replicate 2) was 101.260 and the Cell viability (HepG2-NTCP cells [2]; replicate 3) was 101.966.
